Values quoted from earlier work as cited in paper PMC10799843 (Molecular pharmaceutics, 2023).

Tested on: denatured collagen
Settings: control scrambled peptide

Collagen binding affinity: lacking in collagen binding affinity
Substance: Cy5.5-KGGG-OfGGOfGfGfOfOGOfGOOfGGOOffG [^SCHP]
